Reference: PMC3798018 (Nature chemical biology, 2009)

Experiments:
[1] = system: human PLD1b; settings: read-out: IC50 human PLD1b; in vitro; cited from earlier work
[2] = system: non-HKD-containing bacterial (Streptomyces chromofuscus) PLD; settings: read-out: IC50 S. chromofuscus PLD; in vitro; cited from earlier work
[3] = system: PMT cells; assay: Transwell matrigel invasion assay, PMT; assay type: cell-based, mouse; settings: 20 µM, 48 h
[4] = system: 4T1 mouse metastatic breast cancer line; assay: Transwell matrigel invasion assay, 4T1; assay type: cell-based; settings: 48 h
[5] = system: MDA-231 human breast cancer cell line; assay: Transwell matrigel invasion assay, MDA-231; assay type: cell-based; settings: MDA-231, 20 µM, 48 h
[6] = molecular target: T1, rat PLD1.d311 (Rattus norvegicus, UniProt P70496); settings: no noticeable difference between the two
T1 sequence (P70496 312-1036 isoform P70496-2): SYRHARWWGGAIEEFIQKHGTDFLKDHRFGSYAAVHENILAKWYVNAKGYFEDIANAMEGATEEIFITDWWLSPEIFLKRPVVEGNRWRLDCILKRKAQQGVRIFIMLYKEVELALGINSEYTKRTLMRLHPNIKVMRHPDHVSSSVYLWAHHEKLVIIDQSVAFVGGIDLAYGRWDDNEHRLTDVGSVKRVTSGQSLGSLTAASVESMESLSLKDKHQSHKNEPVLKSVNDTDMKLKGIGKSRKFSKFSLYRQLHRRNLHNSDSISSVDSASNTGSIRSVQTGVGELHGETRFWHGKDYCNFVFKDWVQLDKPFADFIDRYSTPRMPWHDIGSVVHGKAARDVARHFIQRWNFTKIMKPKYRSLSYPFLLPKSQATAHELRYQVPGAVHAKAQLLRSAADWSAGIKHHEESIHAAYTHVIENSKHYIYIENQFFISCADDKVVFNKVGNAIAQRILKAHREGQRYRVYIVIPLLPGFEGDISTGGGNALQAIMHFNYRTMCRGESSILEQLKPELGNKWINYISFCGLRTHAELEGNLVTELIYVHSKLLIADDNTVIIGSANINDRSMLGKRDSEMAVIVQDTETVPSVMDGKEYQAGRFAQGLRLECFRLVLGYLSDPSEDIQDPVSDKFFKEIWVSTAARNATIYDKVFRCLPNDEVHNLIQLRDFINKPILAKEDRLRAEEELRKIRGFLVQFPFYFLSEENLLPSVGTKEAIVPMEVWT

[7] = system: PLD; settings: read-out: IC50 (PLD, indirect inhibitor); cited from earlier work
[8] = molecular target: PLD2 (HEK293-gfpPLD2 cells) (Homo sapiens, UniProt O14939); assay: Endogenous PLD activity assay; assay type: cell-based
Chain of PLD2 (HEK293-gfpPLD2 cells) (O14939 whole entry): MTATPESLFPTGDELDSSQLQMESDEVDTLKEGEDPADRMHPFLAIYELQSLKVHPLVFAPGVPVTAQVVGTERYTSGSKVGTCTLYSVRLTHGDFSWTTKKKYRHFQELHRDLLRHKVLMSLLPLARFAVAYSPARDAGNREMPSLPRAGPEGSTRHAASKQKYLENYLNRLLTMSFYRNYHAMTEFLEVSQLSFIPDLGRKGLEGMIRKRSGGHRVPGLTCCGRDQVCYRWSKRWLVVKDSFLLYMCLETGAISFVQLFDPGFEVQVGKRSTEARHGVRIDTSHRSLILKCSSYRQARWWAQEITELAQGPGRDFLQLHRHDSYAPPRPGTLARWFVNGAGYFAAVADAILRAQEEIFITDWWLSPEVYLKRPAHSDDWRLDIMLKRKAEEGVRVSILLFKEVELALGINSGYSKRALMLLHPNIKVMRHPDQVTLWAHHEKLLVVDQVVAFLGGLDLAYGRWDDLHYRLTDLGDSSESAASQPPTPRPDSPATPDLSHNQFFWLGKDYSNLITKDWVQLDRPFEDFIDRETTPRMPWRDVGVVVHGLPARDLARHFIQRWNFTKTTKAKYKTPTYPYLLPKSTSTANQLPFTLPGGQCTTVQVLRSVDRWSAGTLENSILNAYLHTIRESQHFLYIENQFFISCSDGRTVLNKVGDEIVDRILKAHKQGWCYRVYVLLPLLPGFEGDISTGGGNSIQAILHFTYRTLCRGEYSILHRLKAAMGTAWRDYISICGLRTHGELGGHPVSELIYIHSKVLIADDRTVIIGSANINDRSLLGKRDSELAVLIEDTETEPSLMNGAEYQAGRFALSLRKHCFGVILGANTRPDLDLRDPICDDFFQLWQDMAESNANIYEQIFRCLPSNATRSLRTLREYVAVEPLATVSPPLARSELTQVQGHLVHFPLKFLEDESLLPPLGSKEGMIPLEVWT

Row | SMILES | Invasive migration in transwell invasion assay [3] | Invasive migration in transwell invasion assay ([4]; 4T1, 20 µM) | Invasive migration in transwell invasion assay [5] | other results
1 | CC(C)=CCC/C(C)=C/CC/C(C)=C/C1C(COP(=O)(O)OP(=O)(O)O)C1(C)CC/C=C(\C)CCC=C(C)C (stereo in doubt) [presqualene diphosphate] | – | – | – | IC50 [1]: > 1000 nM; IC50 [2]: 100 nM
2 | O=C(c1ccc(Cl)cc1)N(CCN1CCC2(CC1)C(=O)NCN2c1ccccc1)C(=O)c1ccc(Cl)cc1 [Compound 82] | significantly decreased cell migration | significantly decreased cell migration | significantly decreased cell migration | –
3 | C[C@@H](CN1CCC(n2c(=O)[nH]c3cc(Cl)ccc32)CC1)NC(=O)c1ccc2ccccc2c1 [Compound 69] | significantly decreased cell migration | significantly decreased cell migration | significantly decreased cell migration | Invasive migration in transwell invasion assay ([4]; 4T1, 200 nM): significantly decreased cell migration
4 | O=C(NCCN1CCC(n2c(=O)[nH]c3ccccc32)CC1)c1cc(Br)c(Br)o1 [Compound 64] | – | – | – | Inhibition of basal and myr-Arf-1-stimulated activity of purified PLD1.d311 [6]: directly inhibited
5 | O=C(NCCN1CCC(n2c(=O)[nH]c3ccccc32)CC1)c1ccc2ccccc2c1 [Compound 56] | significantly (P < 0.05) decrease | significantly (P < 0.05) decrease | significantly (P < 0.05) decrease | –
6 | O=C(NCCN1CCC(n2c(=O)[nH]c3ccccc32)CC1)[C@@H]1C[C@H]1c1ccccc1 [Compound 58] | significantly decreased cell migration | significantly decreased cell migration | significantly decreased cell migration | Invasive migration in transwell invasion assay ([4]; 4T1, 200 nM): significantly decreased cell migration
7 | O=C(NCCN1CCC2(CC1)C(=O)NCN2c1ccccc1)c1ccc2ccccc2c1 [Compound 72] | significantly decreased cell migration | significantly decreased cell migration | significantly decreased cell migration | –
8 | Oc1ccc(/C=C/c2cc(O)cc(O)c2)cc1 [resveratrol] | – | – | – | IC50 [7]: > 60000 nM
9 | O=C(NCCN1CCC2(CC1)C(=O)NCN2c1ccccc1)c1ccc(C(F)(F)F)cc1 [Compound 70] | – | – | – | IC50 [8]: > 20000 nM
